From patent US20250177478A1, “G ALPHA Q/11 INHIBITORS FOR USE AS AN ANALGESIC” (University of Florida Research Foundation, Incorporated, priority 2022, published 2025)

What was measured:
C57BL/6 mice = settings: morphine 5 mg/kg s.c. alone, 120 min
Text: A. Experimental animals. C57BL/6 mice (6-8 weeks old) of both sexes were used. Mice were housed in groups on a 12-h light-dark cycle (6:00 am light cycle; 6:00 pm dark cycle) with food (Teklad Global 16% protein rodent diets; Envigo Inc., WI, USA) and water available ad libitum. Animal groups were compiled to ensure minimization of factors (e.g., weight, sex, and health). Mice were within 20-28 g in weight at start of all studies. All tested groups contained a control group and consisted of male and female mice. Males and females were tested on the same day but at different times so that they were not in the room at the same time. All the experiments were tested during the light cycle between 8:00 am and 3:00 pm to avoid any long-term disruption of sleep cycles. Mice were transferred to the behavioural testing room at least 45 min before the first test to acclimatize. Following behavioural evaluation, animals were killed by CO2 inhalation, followed by cervical dislocation and postmortem decapitation.
B. Drug treatments. […] The dose of YM-254890 for subcutaneous injection was taken from previous published studies. The dose of morphine selected for subcutaneous administration (2.5, 5 and 10 mg kg-1) is commonly used in mouse analgesia. For the combined administration of morphine and YM-254890 on thermal anti-nociception, YM-254890 was administered 10 min before the morphine. The latency of response was measured before injection of drugs (baseline latency response) and at different time intervals (post-treatment latency response) after drugs injection.
C. Intrathecal injections. Intrathecal (i.t.) administration was performed following the method described previously (Hylden J L et al. “Intrathecal morphine in mice: a new technique.” Eur J Pharmacol (1980) 67:313-316; Li D et al. “Direct Intrathecal Injection of Recombinant Adeno-associated Viruses in Adult Mice.” J Vis Exp (2019)) with slight modifications. All intrathecal injections were performed using a 25 μL Hamilton syringe with a 30-gauge needle. The injection volume was 5 μL for each mouse. […] Each solution was injected without injection cannulae. Intrathecal injections were made into the L5-L6 intervertebral space of unanesthetized mice. The flick of the tail was considered indicative of a successful i.t. administration.

DRG nociceptors = test: Whole cell patch-clamp recordings of acutely dissociated DRG nociceptors; format: cell-based, mouse
Procedure: F. Acutely dissociated dorsal root ganglion (DRG) Preparation. Male or female mice between 1 and 2 months of age were used for acute DRG isolations. […] Dissociated DRG cultures were prepared as previously described (Perner C et al. “Protocol for dissection and culture of murine dorsal root ganglia neurons to study neuropeptide release.” STAR Protoc (2021) 2:100333). Briefly, DRGs were dissected from 1- to 2-month-old mice in Hank's buffered salt solution (HBSS) and digested with Collagenase A and Dispase II for 25 min at 37° C., centrifuged at 200×g for 5 min, and washed with Dulbecco's modified Eagle's medium (DMEM) supplemented with 10% fetal bovine serum (FBS), glutamate, sodium pyruvate, 1% penicillin and 1% streptomycin. DRGs were then triturated in Neurobasal A medium supplemented with 10% FBS, 1% penicillin, 1% streptomycin, 1% GlutaMAX, 2% B27, […] nerve growth factor (NGF) and […] glial cell line-derived neurotrophic factor (GDNF). After plating on laminin-coated coverslips, cells were incubated at 37° C. overnight. Experiments were performed the day after dissection.
G. Whole cell patch-clamp recordings. Nociceptors were identified by physiological classification protocols (Petruska J C et al. “Subclassified acutely dissociated cells of rat DRG: histochemistry and patterns of capsaicin-, proton-, and ATP-activated currents.” J Neurophysiol (2000) 84:2365-2379) summarized in FIG. 10 and further by responsivity to morphine. Each experimental group consisted of 12-18 DRG recordings from three animals, 1-2 of which were female. Hyperpolarization-activated current (Ih) and kinetics of resulting transient currents were determined by stepping membrane potential from −60 to −110 mV for 500 ms in 10 mV increments (FIG. 10A). Outward currents were identified by first preconditioning membrane potential at −100 mV for 500 ms and then stepping from −60 to 40 mV in 20 mV increments for 200 ms (FIG. 10D). Inward current dynamics were determined by preconditioning at −80 mV and then stepping from −60 to 40 mV in 10 mV increments (FIG. 10G). A 6-s, 0- to 2-nA continuous ramp stimulation protocol was used to determine rheobase. Membrane capacitance (Cm), series resistance (Rs) and input resistance (Ri) were tested with a hyperpolarizing 10 mV pulse of 10 ms duration initially and at a 30 s interval throughout the recording period. Cells were recorded only if initial series resistance was ≤20 MΩ and excluded if Rs varied >20% while recording. Offline analysis identified clustering of a population n=30 with uniform morphine responsivity that was selected for further analysis, with basal parameters #SEM: Cm=27.31±4.72 pF, Ri=492±19.29 MQ, Ih=7.10±2.45 pA·pF−1, IA tau=8.39±0.41 ms and action potential (AP) tau=1.22±0.08 ms. K+ internal was used for all recordings, containing: 6 mM NaCl, 4 mM NaOH, 130 mM K-gluconate, 11 mM ethylene glycol-bis(β-aminoethyl ether)tetraacetic acid (EGTA), 1 mM CaCl2, 1 mM MgCl2, 10 mM N-(2-hydroxyethyl)piperazine-N′-(2-ethanesulphonic acid) (HEPES), 2 mM Na2ATP, and 0.2 mM Na2GTP 0.2, adjusted to pH 7.3-7.4 with HCl. External artificial CSF contained: 125 mM NaCl, 3 mM KCl, 1.2 mM KH2PO4, 1.2 mM MgSO4, 25 mM NaHCO3, 2 mM CaCl2), and 10 mM dextrose 10, adjusted to pH 7.3-7.4 with HCl.

CN1CC[C@]23c4c5ccc(O)c4O[C@H]2[C@@H](O)C=C[C@H]3[C@H]1C5 [morphine]
locomotion in open-field test (C57BL/6 mice): locomotor-sensitizing effect
rapidly inactivating A-type potassium currents (IA), voltage-step protocol 2 (DRG nociceptors; YM-254890 or morphine alone): significantly inhibited IA
AP amplitude, voltage-step protocol (DRG nociceptors; bath application alone: 100 nM YM or 1 μM morphine): moderately reduced AP amplitude
excitability of DRG nociceptors (rheobase, 0-2 nA ramp stimulation) (DRG nociceptors; bath application alone: 1 μM morphine or 100 nM YM): substantially decreased excitability
